Measurements taken from PMC10296238, “A Magnetic-Bead-Based Immunoassay with a Newly Developed Monoclonal Antibody for Rapid and Highly Sensitive Detection of Forchlorfenuron” (Biosensors, 2023).
≈ marks a conversion by molar mass, not a printed value.

Tests used:
anti-CPPU mAb 14G1 = test: conventional indirect competitive ELISA (icELISA) based on mAb 14G1; type: binding, mouse; details: for icELISA CR: CR = IC50 of CPPU/IC50 of analyte × 100%
Method: A conventional icELISA was developed for CPPU detection as follows: 0.5 μg/mL CPPU–BSA was dropped into the 96-well microplate (100 μL/well) and incubated overnight at 4 °C. The plates were blocked at 37 °C with 5% skim milk in PBST (PBS containing 0.05% Tween 20) for 1 h. After washing the plate with PBST three times, 50 μL of mAb 14G1 and 50 μL of sequentially diluted CPPU standard solution were added. The plate was incubated for 1 h at 37 °C, washed three times, and 100 μL/well of goat anti-mouse lgG-HRP solution was added for another 1 h of incubation. After washing six times, 100 μL/well of TMB substrate was added to the plate and reacted for 15 min. Finally, 2 M H2SO4 (50 μL/well) was added into the plate to stop the reaction, and the OD450 value was read with a microplate reader.
(§1) The cross-reactivities (CRs) of the developed MB-based assay and icELISA with compounds structurally related to CPPU were used to evaluate the selectivity of the assays. The CR value of each compound was calculated as follows: CR (%) = (IC50 of CPPU/IC50 of analyte) × 100%.
The experimental conditions of conventional icELISA were optimized. The evaluation criteria were the 50% inhibition concentration (IC50; representing the sensitivity) and maximum absorbance (ODmax) of the negative control. The working concentrations of the CPPU–BSA conjugate and mAb 14G1 were primarily optimized by a checkerboard titration. The concentration of CPPU–BSA coated in the plate was diluted from 2.0 μg/mL to 0.25 μg /mL, and anti-CPPU mAb 14G1 was diluted in a series of two-fold dilutions from 1:2000. […] After optimization, the concentrations of CPPU–BSA and mAb 14G1 were 0.5 μg/mL and 0.016 μg/mL for icELISA (Figure S2a). Then, the process parameters of icELISA were optimized through single-factor experiments. The influence of blocking reagents commonly used in ELISA systems, OVA, skim milk, and BSA, were evaluated and compared for their effectiveness in reducing nonspecific binding. Finally, 5% skim milk was selected, which gave a minimum IC50 value (Figure S2b). CPPU is a lipophilic, small organic compound, and methanol has been reported to be a more acceptable co-solvent for CPPU during the immunochemical reaction. The effect of methanol concentration on immunoassay performance was assessed. […] The ionic strength of 136 mM, which provided the lowest IC50 value, was selected. The pH value is one of the key factors influencing the characteristics of the assay. From Figure S2e, the value of pH 7.4 was selected as the optimum for the assay based on the favorable IC50 value. Under the optimal assay conditions, an indirect competitive ELISA standard curve was established (Figure 3). […] Moreover, the assay has a linear range (IC20–IC80) of 0.005–0.231 ng/mL.

rats = details: cited from earlier work
mAb against CPPU = details: cited from earlier work
mAb = details: cited from earlier work
pAb = tested on: pAb; parameters: method as in earlier work; details: cited from earlier work
mAb, P6#42 = details: cited from earlier work
zebrafish = details: cited from earlier work
anti-CPPU mAb 14G1–HRP [1] = test: direct competitive magnetic-bead (MB)-based assay with mAb 14G1–HRP; type: binding, mouse
anti-CPPU mAb 14G1–HRP [2] = test: as above; type: binding, mouse; details: for MB-Based Assay CR: CR = IC50 of CPPU/IC50 of analyte × 100%
Method: A direct competitive MB-based assay was developed as follows. First, the 96-well microtiter plate was pre-sealed with 5% skim milk at 37 °C for 1 h. After washing with PBST, MB–CPPU–BSA (10 μg/μL, 10 μL per well) was added to the 96-well plate. Subsequently, 50 μL of serially diluted CPPU standards and 50 μL of diluted mAb–HRP (1:3200) were mixed into the wells. The plate was shaken well and incubated at 37 °C for 20 min and then placed on a magnetic base to precipitate the MB. Then, the supernatant was discarded, and the plate was washed three times with PBST. After washing, TMB substrate (100 μL per well) was added and incubated for 15 min at 37 °C. The reaction was stopped with 2 M H2SO4, and the absorbance was measured at a wavelength of 450 nm.
The reaction parameters greatly influence assay sensitivity. Therefore, the experimental parameters including concentrations of MB–CPPU–BSA and mAb–HRP, ionic strength, pH value, and organic solvent content in buffer were investigated to improve the sensitivity of the MB-based assay. After optimization, the standard curve for the MB-based assay was generated by plotting the B/B0 (B and B0 were defined as the OD450 in the presence and absence of CPPU, respectively) against the logarithm of CPPU concentration. The 50% inhibitory concentration value (IC50) calculated from the curves was used to evaluate assay sensitivity.
as §1
To obtain better analytical performance of the MB-based assay, the reaction conditions were investigated. First of all, the working concentrations of MB–CPPU–BSA and mAb 14G1–HRP were determined by checkerboard titration as 0.1 mg/mL and 1:6400 dilution, respectively (Table S1). Then, the influence of other parameters on the assay was also optimized, in which the IC50 value was used as the main criterion. The effects of different ionic strengths and different pH values of the PBS solution on antigen–antibody binding in the MB-based assay were evaluated (Figure S4a,b). […] The optimal methanol concentration was selected to be 5% for the lower IC50. To shorten the detection duration, the incubation time for the competitive reaction between MB–CPPU–BSA and free-CPPU for binding to mAb–HRP tracer was optimized in sequence. […] Shorter incubation times may result in insufficient antigen–antibody binding, while longer incubation times not only further increased the maximum intensity but also led to higher background signals from non-specific binding. Therefore, incubation was stopped after 20 min, and beads were washed to remove unbound antibody.

mAb (s5#34) = details: cited from earlier work

O=C(Nc1ccccc1)Nc1ccnc(Cl)c1 [Forchlorfenuron (CPPU), Forchlorfenuron]
icELISA IC50 during optimization (anti-CPPU mAb 14G1; 5% methanol, Figure S2c): 0.0372 ng/mL | icELISA CR (anti-CPPU mAb 14G1): 100% | icELISA IC50 (anti-CPPU mAb 14G1; optimal assay conditions): 0.0253 ng/mL | icELISA limit of detection (LOD, IC10) (anti-CPPU mAb 14G1; optimal assay conditions): 0.002 ng/mL | icELISA linear range (IC20–IC80) (anti-CPPU mAb 14G1; optimal assay conditions): 0.005 to 0.231 ng/mL | toxic effects in rats (rats): potential adverse effects on the ovaries and on the production of steroid hormones | icELISA IC50 (mAb against CPPU): 1.04 ng/mL | icELISA LOD (mAb against CPPU): 0.16 ng/mL | icELISA linear range (mAb against CPPU): 0.31 to 3.43 ng/mL | icELISA (mAb) LOD (mAb): 0.013 ng/mL | icELISA (mAb) linear range (mAb): 0.022 to 0.156 ng/mL | dcELISA (pAb) IC50 (pAb): 0.077 ng/mL | dcELISA (pAb) LOD (pAb): 0.012 ng/mL | dcELISA (pAb) linear range (pAb): 0.025-0.276 ng/mL | LFIA IC50 (mAb, P6#42): 0.286 ng/mL | LFIA LOD (mAb, P6#42): 0.045 ng/mL | LFIA linear range (mAb, P6#42): 0.089 to 0.916 ng/mL | toxic effects in zebrafish (zebrafish): cardiac morphology deformation, cardiac contractile dysfunction, and erythrocyte reduction | IC50, MB-based assay optimization (anti-CPPU mAb 14G1–HRP [1]; mAb-HRP 1:400, MB-CPPU-BSA 0.0125 μg/μL): 0.0315 ng/mL (≈ 0.127 nM) | IC50, MB-based assay optimization (anti-CPPU mAb 14G1–HRP [1]; mAb-HRP 1:800, MB-CPPU-BSA 0.025 μg/μL): 0.0147 ng/mL (≈ 0.0593 nM) | IC50, MB-based assay optimization (anti-CPPU mAb 14G1–HRP [1]; mAb-HRP 1:1600, MB-CPPU-BSA 0.05 μg/μL): 0.0139 ng/mL (≈ 0.0561 nM) | IC50, MB-based assay optimization (anti-CPPU mAb 14G1–HRP [1]; mAb-HRP 1:3200, MB-CPPU-BSA 0.10 μg/μL): 0.0132 ng/mL (≈ 0.0533 nM) | IC50, MB-based assay optimization (anti-CPPU mAb 14G1–HRP [1]; mAb-HRP 1:6400, MB-CPPU-BSA 0.20 μg/μL): 0.0140 ng/mL (≈ 0.0565 nM) | MB-Based Assay CR (anti-CPPU mAb 14G1–HRP [2]): 100% | estimated LOD in grape, MB-based assay (anti-CPPU mAb 14G1–HRP [2]; grape, considering dilution factor of the sample (100-fold)): 0.0168 µg/kg | estimated LOD in kiwifruit, MB-based assay (anti-CPPU mAb 14G1–HRP [2]; kiwifruit, considering dilution factor of the sample (100-fold)): 0.0191 µg/kg | MB-Based Assay IC50 (anti-CPPU mAb 14G1–HRP [2]; optimized conditions): 0.0061 ng/mL | MB-based assay LOD (anti-CPPU mAb 14G1–HRP [2]; optimized conditions): 0.0004 ng/mL | MB-based assay linear detection range (IC20–IC80) (anti-CPPU mAb 14G1–HRP [2]; optimized conditions): 0.0016 to 0.0259 ng/mL | dcELISA (mAb) LOD (mAb (s5#34)): 0.01 ng/mL | dcELISA IC50 (mAb (s5#34); in buffer): 0.063 ng/mL

CN(C)C(=O)Nc1ccc(Cl)c(Cl)c1 [Diuron]
icELISA CR (anti-CPPU mAb 14G1): <1.0% | icELISA IC50 (anti-CPPU mAb 14G1; optimal assay conditions): >2.5 ng/mL | MB-Based Assay CR (anti-CPPU mAb 14G1–HRP [2]): <0.6% | MB-Based Assay IC50 (anti-CPPU mAb 14G1–HRP [2]; optimized conditions): >1.0 ng/mL

O=C(Nc1ccccc1)Nc1cnns1 [Thidiazuron]
icELISA CR (anti-CPPU mAb 14G1): <1.0% | icELISA CR (anti-CPPU mAb 14G1; listed as thidiazuron): negligible cross-reaction | icELISA IC50 (anti-CPPU mAb 14G1; optimal assay conditions): >2.5 ng/mL | MB-Based Assay CR (anti-CPPU mAb 14G1–HRP [2]): <0.6% | MB-Based Assay CR (anti-CPPU mAb 14G1–HRP [2]; listed as thidiazuron): negligible cross-reaction | MB-Based Assay IC50 (anti-CPPU mAb 14G1–HRP [2]; optimized conditions): >1.0 ng/mL | dcELISA cross-reactivity (CR) (mAb (s5#34); mAb s5#34): 71%

Clc1ccccc1-c1nnc(-c2ccccc2Cl)nn1 [Clofentezine]
icELISA CR (anti-CPPU mAb 14G1): <1.0% | icELISA IC50 (anti-CPPU mAb 14G1; optimal assay conditions): >2.5 ng/mL | MB-Based Assay CR (anti-CPPU mAb 14G1–HRP [2]): <0.6% | MB-Based Assay IC50 (anti-CPPU mAb 14G1–HRP [2]; optimized conditions): >1.0 ng/mL

Cc1ccc(NC(=O)N(C)C)cc1Cl [Chlorotoluron]
icELISA CR (anti-CPPU mAb 14G1): <1.0% | icELISA IC50 (anti-CPPU mAb 14G1; optimal assay conditions): >2.5 ng/mL | MB-Based Assay CR (anti-CPPU mAb 14G1–HRP [2]): <0.6% | MB-Based Assay IC50 (anti-CPPU mAb 14G1–HRP [2]; optimized conditions): >1.0 ng/mL

CON(C)C(=O)Nc1ccc(Cl)c(Cl)c1 [Linuron]
icELISA CR (anti-CPPU mAb 14G1): <1.0% | icELISA IC50 (anti-CPPU mAb 14G1; optimal assay conditions): >2.5 ng/mL | MB-Based Assay CR (anti-CPPU mAb 14G1–HRP [2]): <0.6% | MB-Based Assay IC50 (anti-CPPU mAb 14G1–HRP [2]; optimized conditions): >1.0 ng/mL
